Data from patent publication US9155691B2, “Composition for reducing skin wrinkles including PDE5 inhibitor” (SK Chemicals Co., Ltd., priority 2010, dated 2015).

Key:
[1] = tested on: UVB-induced skin wrinkles of hairless mice; experiment: Wrinkle reduction in the skin of UVB-irradiated hairless mice (photographs); type: in vivo
Procedure: An examination was made as to whether the PDE5 inhibitors can substantially reduce skin wrinkles of animal models. Hairless mice, aged 7 weeks, were irradiated with UVB (290-320 nm, 312 nm) to induce wrinkles. The compound or the control was applied to each mouse and its influence on the induced wrinkles was evaluated. More specifically, the mice were irradiated with 60 mJ/cm^2 (1 minimal […] dose (MED)) for 3 days weekly during the first and second week after wrinkling, 120 mJ/cm^2 (2 MED) for 3 days during the third week after wrinkling, 180 mJ/cm^2 (3 MED) for 3 days during the fourth week after wrinkling, 240 mJ/cm^2 (4 MED) for 3 days weekly during the fifth to eighth week after wrinkling, and 240 mJ/cm^2 (4 MED) for 5 days weekly during the ninth to fifteenth week after wrinkling. During the sixteenth and seventeenth week after wrinkling, about 0.5 ml of squalene-OOH, an oxidation product of squalene by UV irradiation, was applied once using a brush to induce deeper wrinkles. […]

[2] = tested on: Normal human dermal fibroblasts (NHDFs); experiment: Stimulatory effect on collagen production: synthesis rate of procollagen type I (C-peptide EIA, corrected for total protein); type: cell-based; conditions: NHDF, 48 hr, negative control 100.0±0.0%
Procedure: In this example, stimulatory effects of major PDE5 inhibitors on collagen production were investigated in order to determine whether the PDE5 inhibitors are effective in reducing skin wrinkles. Collagen is a very important substance involved in the regulation of wrinkles. Collagen disruption is known to lead to the formation of wrinkles. Collagen production plays an important role in the reduction of wrinkles.
Normal human dermal fibroblasts (NHDFs) were cultured in a complete medium. 400 μl (1×10^5 cells) of the NHDF culture was placed in each well of a 48-well plate and were cultured in an incubator (MCO-20 AIC, Sanyo, Japan) at 37 C.° and 5% CO2 for 24 hr. After completion of culturing, the culture fluid was discarded from the wells. 500 μl of D-phosphate buffered saline (D-PBS) was added to each well for washing. Thereafter, 800 μl of a test substance and 800 μl of a positive control were added to the corresponding wells. 800 μl of a serum-free medium supplemented with DMSO was added to the wells of a negative control. The culture was continued in an incubator at 37 C.° and 5% CO2 for 48 hr. After culturing was completed, the culture fluids were collected from the wells, followed by centrifugation (25 C.°, 3,000 rpm, 10 min). The supernatants were used for the quantification of procollagen type I. After 1 mL of D-PBS was added to each well of the plate, from which the culture fluids had been removed, for washing, 30 μl of a cell lysis buffer (Lot No.: 41, Cell Signaling Technology, U.S.A) was added to each well. The plate was frozen during storage in a deep freezer (DFU-657CL, Operon, Korea) at −70 C.° for 2 hr, and thawed at room temperature. The freeze-thaw procedure was repeated twice to lyse the cells. Each of the cell lysates was collected and centrifuged (Micro 17TR, Hanil Science Industrial, Korea) (4 C.°, 13000 rpm, 30 min). The supernatant was used for total protein quantification.
40 μl of the obtained supernatant was added to each well of a 96-well plate. A standard solution from a BCA protein assay kit (Lot No.: KK140637, Pierce Biotechnology Inc., USA) was diluted stepwise to different concentrations (250, 125, 50, 25, 5 and 0 μg/mL). 40 μl of the dilute solution was added to each well. 160 μl of a reagent mixture from the assay kit was added to each well. Thereafter, the resulting mixtures were allowed to react in an incubator (NB-201V, n-Biotec, Korea) at 60 C.° for 30 min. After completion of the reaction, the absorbance of each well was measured at 562 nm using an ELISA reader (PowerWave XS, BioTek Instruments, Inc., USA). The amounts of total proteins in the wells containing the test substance, the positive control and the negative control were determined by substituting the absorbance value of each well into the standard curve equation.
100 μl of the obtained supernatant was added to each well of a 96-well plate from a procollagen type I C-peptide EIA kit (Lot No.: AB01520C, Takara Bio Inc., Japan). A standard solution from the kit was diluted stepwise to different concentrations (640, 320, 160, 80, 40, 20, 10 and 0 ng/mL). 100 μl of the dilute solution was added to each well. Thereafter, the resulting mixtures were allowed to react in an incubator at 37 C.° for 2 hr. The reaction solution was discarded from each well. The well was washed with 400 μl of PBS (×3). 100 μl of solution 1 from the kit was added to each well. The reaction was carried out at 37 C.° for 1 hr. After completion of the reaction, the reaction solution was discarded from each well and 400 μl of PBS was added to the well for washing (×4). 100 μl of a tetramethylbenzidine (TMBZ) substrate solution from the kit was added to each well. The reaction was carried out at 30 C.° for 15 min. Thereafter, 100 μl of 1 N H2SO4 solution was added to each well to stop the reaction. The absorbance of each well was measured at 450 nm using an ELISA reader. […]

[3] = 10 mM (about 5%), applied to skin twice daily for 14 days, n=7

SMILES | Skin condition after application (cornified layers) ([1]; 0.05%, applied to skin twice, later once daily, n=6) | Synthesis rate of procollagen type I ([2]; 10 nM, mean of three repeats) | Synthesis rate of procollagen type I ([2]; 100 nM, p<0.01) | Skin condition after application [1, 3] | Wrinkle reduction (skin photographs) [1, 3]
CC1=C(/C=C/C(C)=C/C=C/C(C)=C/C(=O)O)C(C)(C)CCC1 [retinoic acid] | Cornified layers were formed and continuously peeled | – | – | – | –
CN1CC(=O)N2[C@H](c3ccc4c(c3)OCO4)c3[nH]c4ccccc4c3C[C@@H]2C1=O [tadalafil] | – | 147.2±8.1% | 174.7±10.2% | – | –
CCCc1nn(C)c2c(=O)[nH]c(-c3cc(S(=O)(=O)N4CCN(C)CC4)ccc3OCC)nc12 [sildenafil] | – | 108.6±8.1% | 160.7±12.1% | gradually became clean | Wrinkle reduction was observed
CCCc1nc(C)c2c(=O)[nH]c(-c3cc(S(=O)(=O)N4CCN(CC)CC4)ccc3OCC)nn12 [vardenafil] | – | 140.7±7.8% | 162.7±10.0% | – | –
